From patent publication US4175125A, “Method for treating methicillin resistant staphylococcus aureus” (Eli Lilly and Company, priority 1978, dated 1979)
Converted amounts (≈) assume the structure as drawn. Read-outs that look alike come from different tables or passages of the source.

Experiments:
Type in all cases: cell-based
[1] = system: Staphylococcus aureus cultures; test: Agar dilution susceptibility test, phenylthioacetyl cephalosporins vs methicillin resistant S. aureus (Example 9); conditions: Staphylococcus aureus
From the text: This example compares the antibiotic activities of three known compounds, methicillin, cephalothin, and cephaloridine, with three compounds from the above examples, in terms of minimum inhibitory concentration (MIC) values in microgram/milliliter units against various isolates of Staphylococcus aureus cultures. The culture numbers and the procedures used to obtain the reported data are disclosed by W. E. Wick and D. A. Preston in their article "Heterogeneous Methicillin-Resistant Staphylococcus Aureus" which appeared in Progress in Antimicrobial And Anticancer Chemotherapy, Proceedings of the 6th International Congress of Chemotherapy, Volume, 1, U. of Tokyo Press, Tokyo, (1970). In these agardilution susceptibility tests, the inocula were diluted to 10^3 bacteria per spot. Cultures 3055 (benzylpenicillin sensitive) and H232 (benzylpenicillin-resistant) are controls. The remaining cultures are methicillin-resistant, and, except for 3136, are clinical isolates. Culture 3136 is a 4th transfer laboratory selected mutant.

[2] = system: Staphylococcus aureus cultures; test: Modified Bauer-Kirby Disc Susceptibility Test (Example 11); set-up: zone of inhibition: dose or concentration left out as unconfirmed; conditions: for zone of inhibition: Staphylococcus aureus; for Change 37°-30°: 30 mg Disc
Procedure: This example exemplifies the antibiotic activity of 7-[2'-(3"-chloro-4"-fluorophenylthio)acetamido]cephalosporanic acid, a water soluble compound, described in Example 8, against various Staphylococcus aureus cultures, in a modified Bauer-Kirby Disc Susceptibility Test (Bauer, A. W., W. M. M. Kirby, J. C. Sherris, and M. Turck, 1966, Amer. J. Clin. Pathol. 45:493-496). In this test the cultures were incubated at both 37° C. or 30° C. […] 16, 1968, the heterogeneity of methicilllin-resistant S. aureus is manifested by incubation at 30° C.

[3] = system: Staphylococcus aureus cultures; test: Broth dilution MIC in trypticase soy broth, low and high NaCl (Example 10); conditions: for MIC: Staphylococcus aureus, TSB
Procedure: This example compares the antibiotic activities of methicillin, cephalothin and cephaloridine with the compounds of Examples 1, 2 and 3, in broth dilution tests. The MIC values, in μg/ml., are against the same Staphylococcus aureus cultures described in Example 9, except that in this example the cultures were grown in trypticase soy broth (TSB). Growing the cultures in two broth cultures, one having a low (0.5 percent) sodium chloride content and one having a high (5.0 percent) sodium chloride content is said to assist in identifying the methicillin-resistant cultures from those which are not methicillin-resistant. […] See Chabbert, Y. A., 1967 Postgrad. Med. J., 43 (suppl); 40-46. One expects that similar changes in MIC values for this type of culture to other β-lactam antibiotics, e.g., various penicillins and cephalosporins, to have similar implications. […] That is, methicillin-resistant S.aureus cultures are susceptible to the cephalosporin antibiotics used in this invention.

[4] = culture 3130, table part marked b
[5] = culture 3130, table part marked c
[6] = culture 3131, table part marked b
[7] = culture 3131, table part marked c
[8] = culture 3134, table part marked b
[9] = culture 3134, table part marked c
[10] = culture 3135, table part marked b
[11] = culture 3135, table part marked c
[12] = culture 3136, table part marked b
[13] = culture 3136, table part marked c
[14] = culture 3137, table part marked b
[15] = culture 3137, table part marked c
[16] = culture 3138, table part marked b
[17] = culture 3138, table part marked c
[18] = culture 3139, table part marked b
[19] = culture 3139, table part marked c
[20] = culture (Seattle) 966, table part marked b
[21] = culture (Seattle) 966, table part marked c
[22] = culture S61, table part marked b
[23] = culture S61, table part marked c

CC(=O)OCC1=C(C(=O)O)N2C(=O)[C@@H](NC(=O)Cc3cccs3)[C@H]2SC1 [Cephalothin, cephalothin, reference compound]
MIC ([1]; culture 3055 (control, benzylpenicillin sensitive), table part marked b): < 0.25 µg/mL | MIC ([1]; culture 3055 (control, benzylpenicillin sensitive), table part marked c): < 0.25 µg/mL | MIC [1, 4]: 8 µg/mL (≈ 20.2 µM) | MIC [1, 5]: 64 µg/mL (≈ 161 µM) | MIC [1, 6]: 1 µg/mL (≈ 2.52 µM) | MIC [1, 7]: 32 µg/mL (≈ 80.7 µM) | MIC ([1]; culture 3132, table part marked b): 2 µg/mL (≈ 5.04 µM) | MIC ([1]; culture 3132, table part marked c): 16 µg/mL (≈ 40.4 µM) | MIC ([1]; culture 3133, table part marked b): 2 µg/mL (≈ 5.04 µM) | MIC ([1]; culture 3133, table part marked c): 64 µg/mL (≈ 161 µM) | MIC [1, 8]: 8 µg/mL (≈ 20.2 µM) | MIC [1, 9]: 64 µg/mL (≈ 161 µM) | MIC [1, 10]: 2 µg/mL (≈ 5.04 µM) | MIC [1, 11]: 32 µg/mL (≈ 80.7 µM) | MIC [1, 12]: 2 µg/mL (≈ 5.04 µM) | MIC [1, 13]: 32 µg/mL (≈ 80.7 µM) | MIC [1, 14]: 64 µg/mL (≈ 161 µM) | MIC [1, 15]: 128 µg/mL (≈ 323 µM) | MIC [1, 16]: 8 µg/mL (≈ 20.2 µM) | MIC [1, 17]: 64 µg/mL (≈ 161 µM) | MIC [1, 18]: 1 µg/mL (≈ 2.52 µM) | MIC [1, 19]: 32 µg/mL (≈ 80.7 µM) | MIC [1, 20]: 1 µg/mL (≈ 2.52 µM) | MIC [1, 21]: 32 µg/mL (≈ 80.7 µM) | MIC ([1]; culture H232 (control, benzylpenicillin-resistant), table part marked b): < 0.25 µg/mL | MIC ([1]; culture H232 (control, benzylpenicillin-resistant), table part marked c): < 0.25 µg/mL | MIC ([1]; culture Kavarmark 1138501, table part marked b): 2 µg/mL (≈ 5.04 µM) | MIC ([1]; culture Kavarmark 1138501, table part marked c): 32 µg/mL (≈ 80.7 µM) | MIC [1, 22]: 2 µg/mL (≈ 5.04 µM) | MIC [1, 23]: 64 µg/mL (≈ 161 µM) | zone of inhibition ([2]; culture 3055 (penicillin sensitive), 30°, read-out: disc susceptibility (zone) at 30°): > 35 mm | zone of inhibition ([2]; culture 3055 (penicillin sensitive), 37°, read-out: disc susceptibility (zone) at 37°): > 35 mm | zone of inhibition ([2]; culture 3074 (methicillin sensitive, penicillinase producing), 30°, read-out: disc susceptibility (zone) at 30°): 32.1 mm | zone of inhibition ([2]; culture 3074 (methicillin sensitive, penicillinase producing), 37°, read-out: disc susceptibility (zone) at 37°): 31.8 mm | zone of inhibition ([2]; culture 3125 (methicillin resistant), 30°, read-out: disc susceptibility (zone) at 30°): 33.8 mm | zone of inhibition ([2]; culture 3125 (methicillin resistant), 37°, read-out: disc susceptibility (zone) at 37°): 33.4 mm | zone of inhibition ([2]; culture 3130 (methicillin resistant), 30°, read-out: disc susceptibility (zone) at 30°): 20.2 mm | zone of inhibition ([2]; culture 3130 (methicillin resistant), 37°, read-out: disc susceptibility (zone) at 37°): 32.8 mm | zone of inhibition ([2]; culture 3131 (methicillin resistant), 30°, read-out: disc susceptibility (zone) at 30°): 16.6 mm | zone of inhibition ([2]; culture 3131 (methicillin resistant), 37°, read-out: disc susceptibility (zone) at 37°): 29.6 mm | zone of inhibition ([2]; culture 3132 (methicillin resistant), 30°, read-out: disc susceptibility (zone) at 30°): 17.6 mm | zone of inhibition ([2]; culture 3132 (methicillin resistant), 37°, read-out: disc susceptibility (zone) at 37°): 28.6 mm | zone of inhibition ([2]; culture 3133 (methicillin resistant), 30°, read-out: disc susceptibility (zone) at 30°): 12.8 mm | zone of inhibition ([2]; culture 3133 (methicillin resistant), 37°, read-out: disc susceptibility (zone) at 37°): 28.8 mm | zone of inhibition ([2]; culture 3134 (methicillin resistant), 30°, read-out: disc susceptibility (zone) at 30°): 12.1 mm | zone of inhibition ([2]; culture 3134 (methicillin resistant), 37°, read-out: disc susceptibility (zone) at 37°): 27.8 mm | zone of inhibition ([2]; culture 3135 (methicillin resistant), 30°, read-out: disc susceptibility (zone) at 30°): 11.8 mm | zone of inhibition ([2]; culture 3135 (methicillin resistant), 37°, read-out: disc susceptibility (zone) at 37°): 28 mm | zone of inhibition ([2]; culture 3136 (methicillin resistant), 30°, read-out: disc susceptibility (zone) at 30°): 20.8 mm | zone of inhibition ([2]; culture 3136 (methicillin resistant), 37°, read-out: disc susceptibility (zone) at 37°): 35.6 mm | zone of inhibition ([2]; culture 3137 (methicillin resistant), 30°, read-out: disc susceptibility (zone) at 30°): 0 mm | zone of inhibition ([2]; culture 3137 (methicillin resistant), 37°, read-out: disc susceptibility (zone) at 37°): 17.8 mm | zone of inhibition ([2]; culture 3138 (methicillin resistant), 30°, read-out: disc susceptibility (zone) at 30°): 11.3 mm | zone of inhibition ([2]; culture 3138 (methicillin resistant), 37°, read-out: disc susceptibility (zone) at 37°): 26.2 mm | zone of inhibition ([2]; culture 3139 (methicillin resistant), 30°, read-out: disc susceptibility (zone) at 30°): 27 mm | zone of inhibition ([2]; culture 3139 (methicillin resistant), 37°, read-out: disc susceptibility (zone) at 37°): 32 mm | zone of inhibition ([2]; culture 3140 (methicillin resistant), 30°, read-out: disc susceptibility (zone) at 30°): 10.4 mm | zone of inhibition ([2]; culture 3140 (methicillin resistant), 37°, read-out: disc susceptibility (zone) at 37°): 29.7 mm | zone of inhibition ([2]; culture H232 (methicillin sensitive, penicillinase producing), 30°, read-out: disc susceptibility (zone) at 30°): 33.2 mm | zone of inhibition ([2]; culture H232 (methicillin sensitive, penicillinase producing), 37°, read-out: disc susceptibility (zone) at 37°): 33.4 mm | Change 37°-30° ([2]; culture 3074): +0.3 mm | Change 37°-30° ([2]; culture 3130): -12.6 mm | Change 37°-30° ([2]; culture 3131): -13.0 mm | Change 37°-30° ([2]; culture 3132): -11.0 mm | Change 37°-30° ([2]; culture 3133): -16.0 mm | Change 37°-30° ([2]; culture 3134): -15.7 mm | Change 37°-30° ([2]; culture 3135): -16.2 mm | Change 37°-30° ([2]; culture 3136): -14.8 mm | Change 37°-30° ([2]; culture 3137): > 17.8 mm | Change 37°-30° ([2]; culture 3138): -14.9 mm | Change 37°-30° ([2]; culture 3139): -5.0 mm | Change 37°-30° ([2]; culture 3140): -13.3 mm | Change 37°-30° ([2]; culture H232): -0.2 mm | difference in MIC values in low versus high salt TSB cultures ([3]; 0.5 percent vs 5.0 percent NaCl, methicillin-resistant S. aureus): fairly wide difference (increase in MIC value from 2 to 64) | MIC ([3]; culture 3055 (control), table part marked b): 0.5 µg/mL (≈ 1.26 µM) | MIC ([3]; culture 3055 (control), table part marked c): 0.5 µg/mL (≈ 1.26 µM) | MIC [3, 4]: 8 µg/mL (≈ 20.2 µM) | MIC [3, 5]: 64 µg/mL (≈ 161 µM) | MIC [3, 6]: 2 µg/mL (≈ 5.04 µM) | MIC [3, 7]: 64 µg/mL (≈ 161 µM) | MIC ([3]; culture 3132 (first column so headed), table part marked b): 2 µg/mL (≈ 5.04 µM) | MIC ([3]; culture 3132 (first column so headed), table part marked c): 64 µg/mL (≈ 161 µM) | MIC ([3]; culture 3132 (second column so headed), table part marked b): 2 µg/mL (≈ 5.04 µM) | MIC ([3]; culture 3132 (second column so headed), table part marked c): 64 µg/mL (≈ 161 µM) | MIC [3, 8]: 32 µg/mL (≈ 80.7 µM) | MIC [3, 9]: 64 µg/mL (≈ 161 µM) | MIC [3, 10]: 2 µg/mL (≈ 5.04 µM) | MIC [3, 11]: 64 µg/mL (≈ 161 µM) | MIC [3, 12]: 2 µg/mL (≈ 5.04 µM) | MIC [3, 13]: 64 µg/mL (≈ 161 µM) | MIC [3, 14]: 64 µg/mL (≈ 161 µM) | MIC [3, 15]: 128 µg/mL (≈ 323 µM) | MIC [3, 16]: 32 µg/mL (≈ 80.7 µM) | MIC [3, 17]: 64 µg/mL (≈ 161 µM) | MIC [3, 18]: 4 µg/mL (≈ 10.1 µM) | MIC [3, 19]: 32 µg/mL (≈ 80.7 µM) | MIC [3, 20]: 2 µg/mL (≈ 5.04 µM) | MIC [3, 21]: 32 µg/mL (≈ 80.7 µM) | MIC ([3]; culture H232 (control), table part marked b): 0.5 µg/mL (≈ 1.26 µM) | MIC ([3]; culture H232 (control), table part marked c): 0.5 µg/mL (≈ 1.26 µM) | MIC ([3]; culture Kavarnick 1138501, table part marked b): 4 µg/mL (≈ 10.1 µM) | MIC ([3]; culture Kavarnick 1138501, table part marked c): 64 µg/mL (≈ 161 µM) | MIC [3, 22]: 8 µg/mL (≈ 20.2 µM) | MIC [3, 23]: 64 µg/mL (≈ 161 µM) | MIC ([3]; culture S, table part marked b): 8 µg/mL (≈ 20.2 µM) | MIC ([3]; culture S, table part marked c): 64 µg/mL (≈ 161 µM)
